Values of other authors, collected in patent US9291622B2, “Complement assays and uses thereof” (Apellis Pharmaceuticals, Inc., priority 2009, dated 2016).
[ ]: non-standard residue; d: D form. Trp(5-F) = N[C@@H](Cc1c[nH]c2ccc(F)cc12)C(=O)O; Trp(5-Me) = Cc1ccc2[nH]cc(C[C@H](N)C(=O)O)c2c1; Trp(6-F) = N[C@@H](Cc1c[nH]c2cc(F)ccc12)C(=O)O; Bpa = N[C@@H](Cc1ccc(C(=O)c2ccccc2)cc1)C(=O)O; 1Nal = N[C@@H](Cc1cccc2ccccc12)C(=O)O; 2Nal = N[C@@H](Cc1ccc2ccccc2c1)C(=O)O; Igl = N[C@H](C(=O)O)C1Cc2ccccc2C1; Dht = dihydrotryptophan

Test system: complement activation
Settings: fold activity relative to compstatin (H-ICVVQDWGHHRCT-CONH2)

Row | Substance | Activity over compstatin [× more]
1 | Ac-ICVWQD(5fW)GAHRCT-CONH2 (Ac-ICVWQD[Trp(5-F)]GAHRCT-NH2; cysteine pairing not given here) [Ac-V4W/W7(5fW)/H9A] | 121
2 | Ac-ICV(5fW)QD(5fW)GAHRCT-CONH2 (Ac-ICV[Trp(5-F)]QD[Trp(5-F)]GAHRCT-NH2; cysteine pairing not given here) [Ac-V4(5fW)/W7(5fW)/H9A] | 161
3 | Ac-ICVYQDWGAHRCT-CONH2 [Ac-V4Y/H9A] | 14
4 | Ac-ICV(2-Nal)QDWGAHRCT-CONH2 (Ac-ICV[2Nal]QDWGAHRCT-NH2; cysteine pairing not given here) [Ac-V4(2-Nal)/H9A] | 99
5 | Ac-ICV(5fW)QDWGAHRCT-CONH2 (Ac-ICV[Trp(5-F)]QDWGAHRCT-NH2; cysteine pairing not given here) [Ac-V4(5fW)/H9A] | 31
6 | Ac-ICV(Bpa)QDWGAHRCT-COOH (Ac-ICV[Bpa]QDWGAHRCT-OH; cysteine pairing not given here) [Ac-V4(Bpa)/H9A —OH] | 49
7 | Ac-ICV(2-Nal)QDWGAHRCT-COOH (Ac-ICV[2Nal]QDWGAHRCT-OH; cysteine pairing not given here) [Ac V4(2-Nal)/H9A —OH] | 38
8 | H-GICV(6fW)QD(6fW)GAHRCTN-COOH (H-GICV[Trp(6-F)]QD[Trp(6-F)]GAHRCTN-OH; cysteine pairing not given here) [+G/V4(6fW)/W7(6fW)H9A +N —OH] | 126
9 | Ac-ICV(2-Igl)QDWGAHRCT-COOH (Ac-ICV[Igl]QDWGAHRCT-OH; cysteine pairing not given here) [Ac-V42Igl/H9A —OH] | 37
10 | Ac-ICV(Bpa)QDWGAHRCT-CONH2 (Ac-ICV[Bpa]QDWGAHRCT-NH2; cysteine pairing not given here) [Ac-V4(Bpa)/H9A] | 86
11 | Ac-ICVWQDWGAHRCdT-COOH [Ac-V4W/H9A/T13dT —OH] | 55
12 | Ac-ICV(1-Nal)QDWGAHRCT-COOH (Ac-ICV[1Nal]QDWGAHRCT-OH; cysteine pairing not given here) [Ac V4(1-Nal)/H9A —OH] | 30
13 | Ac-ICVVQDWGHHRCT-CONH2 [Ac-compstatin] | 3
14 | Ac-ICV(5-methyl-W)QDWGAHRCT-CONH2 (Ac-ICV[Trp(5-Me)]QDWGAHRCT-NH2; cysteine pairing not given here) [Ac-V4(5-MeW)/H9A] | 67
15 | Ac-ICVWQDWGAHRCT-CONH2 (Ac-ICVWQDWGAHRCT-NH2; cysteine pairing not given here) [Ac-V4W/H9A] | 45
16 | Ac-ICV(2-Igl)QDWGAHRCT-CONH2 (Ac-ICV[Igl]QDWGAHRCT-NH2; cysteine pairing not given here) [Ac-V42Igl/H9A] | 39
17 | Ac-ICVDhtQDWGAHRCT-COOH (Ac-ICV[Dht]QDWGAHRCT-OH; cysteine pairing not given here) [Ac-V4Dht/H9A —OH] | 5
